{
  "source": "patent US20240270741A1",
  "about": "(Cogent Biosciences, Inc., priority 2023, published 2024)",
  "data": [
    {"molecular_target": "FGFR2 (Homo sapiens, UniProt P21802)", "sequence (P21802 399-821 limits assumed)": "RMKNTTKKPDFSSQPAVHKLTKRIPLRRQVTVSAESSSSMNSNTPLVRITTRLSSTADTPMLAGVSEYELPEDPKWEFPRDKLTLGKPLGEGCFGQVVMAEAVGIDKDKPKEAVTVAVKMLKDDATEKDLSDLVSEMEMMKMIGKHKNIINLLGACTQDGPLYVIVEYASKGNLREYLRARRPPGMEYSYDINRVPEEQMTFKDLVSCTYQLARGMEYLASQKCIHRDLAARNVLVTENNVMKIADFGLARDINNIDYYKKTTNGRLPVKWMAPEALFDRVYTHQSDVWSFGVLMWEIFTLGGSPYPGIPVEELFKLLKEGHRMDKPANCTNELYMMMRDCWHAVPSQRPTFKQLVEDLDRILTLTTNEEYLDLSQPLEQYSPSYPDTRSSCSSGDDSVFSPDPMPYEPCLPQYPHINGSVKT", "test": "FGFR wild type enzyme assay (HTRF KinEASE-TK), FGFR2", "settings": "Enz FGFR2 (nM), FGFR2 wild type enzyme assay", "units": {"IC50": "nM"}, "values": [
      {"smiles": "Cn1cc(-c2cc(Sc3ncccc3F)c3c(C#N)cnn3c2)cn1", "note": "[Example 466, 4-((3-fluoropyridin-2-yl)thio)-6-(1-methyl-1H-pyrazol-4-yl)pyrazolo[1,5-a]pyridine-3-carbonitrile]", "IC50": 6},
      {"smiles": "CN1CCN(c2ccc(-c3cc(Sc4ncccc4F)c4c(C#N)cnn4c3)cc2)CC1", "note": "[Example 467, 4-((3-fluoropyridin-2-yl)thio)-6-(4-(4-methylpiperazin-1-yl)phenyl)pyrazolo[1,5-a]pyridine-3-carbonitrile]", "IC50": 0.4},
      {"smiles": "Cn1cc(-c2cc(Sc3ccccc3C#N)c3c(C#N)cnn3c2)cn1", "note": "[Example 468, 4-((2-cyanophenyl)thio)-6-(1-methyl-1H-pyrazol-4-yl)pyrazolo[1,5-a]pyridine-3-carbonitrile]", "IC50": 1},
      {"smiles": "CN1CCN(c2ccc(-c3cc(Sc4ccccc4C#N)c4c(C#N)cnn4c3)cc2)CC1", "note": "[Example 469, 4-((2-cyanophenyl)thio)-6-(4-(4-methylpiperazin-1-yl)phenyl)pyrazolo[1,5-a]pyridin-3-carbonitrile]", "IC50": 0.2},
      {"smiles": "Cc1c(-c2cc(Sc3ccc(F)cc3C#N)c3c(C#N)cnn3c2)cnn1[C@H]1CC[C@](O)(CO)CC1", "note": "[Example 470, 4-((2-cyano-4-fluorophenyl)thio)-6-(1-((1s,4s)-4-hydroxy-4-(hydroxymethyl)cyclohex-yl)-5-methyl-1H-pyrazol-4-yl)pyrazolo[1,5-a]pyridine-3-carbonitrile]", "IC50": 1},
      {"smiles": "CC1(C)C[C@H](n2cc(-c3cc(Sc4ncccc4F)c4c(C#N)cnn4c3)cn2)CN1", "note": "[Example 471, (S)-6-(1-(5,5-dimethylpyrrolidin-3-yl)-1H-pyrazol-4-yl)-4-((3-fluoropyridin-2-yl)thio)pyrazolo[1,5-a]pyridine-3-carbonitrile]", "IC50": 1},
      {"smiles": "CC1(C)C[C@H](n2cc(-c3cc(Sc4ccccc4C#N)c4c(C#N)cnn4c3)cn2)CN1", "note": "[Example 472, (S)-4-((2-cyanophenyl)thio)-6-(1-(5,5-dimethylpyrrolidin-3-yl)-1H-pyrazol-4-yl)pyrazolo[1,5-a]pyridine-3-carbonitrile]", "IC50": 0.3},
      {"smiles": "CC1(C)C[C@@H](n2cc(-c3cc(Sc4ncccc4F)c4c(C#N)cnn4c3)cn2)CN1", "note": "[Example 473, (R)-6-(1-(5,5-dimethylpyrrolidin-3-yl)-1H-pyrazol-4-yl)-4-((3-fluoropyridin-2-yl)thio)pyrazolo[1,5-a]pyridine-3-carbonitrile]", "IC50": 1},
      {"smiles": "CC1(C)C[C@@H](n2cc(-c3cc(Sc4ccccc4C#N)c4c(C#N)cnn4c3)cn2)CN1", "note": "[Example 474, (R)-4-((2-cyanophenyl)thio)-6-(1-(5,5-dimethylpyrrolidin-3-yl)-1H-pyrazol-4-yl)pyrazolo[1,5-a]pyridine-3-carbonitrile]", "IC50": 0.2},
      {"smiles": "C[C@H](O)C(=O)N1CCC(n2cc(-c3cc(Sc4ccc(F)cc4C#N)c4c(C#N)cnn4c3)cn2)CC1", "note": "[Example 475, (S)-4-((2-cyano-4-fluorophenyl)thio)-6-(1-(1-(2-hydroxypropanoyl)piperidin-4-yl)-1H-pyrazol-4-yl)pyrazolo[1,5-a]pyridine-3-carbonitrile]", "IC50": 1},
      {"smiles": "N#Cc1cnn2cc(-c3cnn([C@H]4CCN(C5CC(O)C5)C4)c3)cc(Sc3ncccc3F)c12", "note": "(stereo partly drawn) [Example 476, (S)-4-((3-fluoropyridin-2-yl)thio)-6-(1-(1-(3-hydroxycyclobutyl)pyrroli-din-3-yl)-1H-pyrazol-4-yl)pyrazolo[1,5-a]pyridine-3-carbonitrile]", "IC50": 1},
      {"smiles": "CC(C)(O)CN1CC[C@H](n2cc(-c3cc(Sc4ncccc4F)c4c(C#N)cnn4c3)cn2)C1", "note": "[Example 477, (S)-4-((3-fluoropyridin-2-yl)thio)-6-(1-(1-(2-hydroxy-2-methylpropyl)pyrrolidin-3-yl)-1H-pyrazol-4-y)pyrazolo[1,5-a]pyridine-3-carbonitrile]", "IC50": 1},
      {"smiles": "COC(=O)N1CCC(n2cc(-c3cc(Sc4ncccc4F)c4c(C#N)cnn4c3)cn2)CC1", "note": "[Example 478, methyl 4-(4-(3-cyano-4-((3-fluoropyridin-2-yl)thio)pyrazolo[1,5-a]pyridin-6-yl)-1H-pyrazol-1-yl)piperidine-1-carboxylate]", "IC50": 1},
      {"smiles": "COC(=O)N1CCC[C@H](n2cc(-c3cc(Sc4ncccc4F)c4c(C#N)cnn4c3)cn2)C1", "note": "[Example 479, methyl (S)-3-(4-(3-cyano-4-((3-fluoropyridin-2-yl)thio)pyrazolo[1,5-a]pyridin-6-yl)-1H-pyrazol-1-yl)piperidine-1-carboxylate]", "IC50": 1},
      {"smiles": "COC(=O)N1CC[C@H](n2cc(-c3cc(Sc4ncccc4F)c4c(C#N)cnn4c3)cn2)C1", "note": "[Example 480, methyl (S)-3-(4-(3-cyano-4-((3-fluoropyridin-2-yl)thio)pyrazolo[1,5-a]pyridin-6-yl)-1H-pyrazol-1-yl)pyrrolidine-1-carboxylate]", "IC50": 1},
      {"smiles": "COC(=O)N1CCC(n2cc(-c3cc(Sc4ccccc4C#N)c4c(C#N)cnn4c3)cn2)CC1", "note": "[Example 481, methyl 4-(4-(3-cyano-4-((2-cyanophenyl)thio)pyrazolo [1,5-a]pyridin-6-yl)-1H-pyrazol-1-yl)piperidine-1-carboxylate]", "IC50": 4},
      {"smiles": "COC(=O)N1CCC[C@H](n2cc(-c3cc(Sc4ccccc4C#N)c4c(C#N)cnn4c3)cn2)C1", "note": "[Example 482, methyl (S)-3-(4-(3-cyano-4-((2-cyanophenyl)thio)pyrazolo [1,5-a]pyridin-6-yl)-1H-pyrazol-1-yl)piperidine-1-carboxylate]", "IC50": 1},
      {"smiles": "COC(=O)N1CC[C@H](n2cc(-c3cc(Sc4ccccc4C#N)c4c(C#N)cnn4c3)cn2)C1", "note": "[Example 483, methyl (S)-3-(4-(3-cyano-4-((2-cyanophenyl)thio)pyrazolo [1,5-a]pyridin-6-yl)-1H-pyrazol-1-yl)pyrrolidine-1-carboxylate]", "IC50": 0.5},
      {"smiles": "N#Cc1ccccc1Sc1cc(-c2cnn([C@H]3CCN(C(=O)CO)C3)c2)cn2ncc(C#N)c12", "note": "[Example 484, (S)-4-((2-cyanophenyl)thio)-6-(1-(1-(2-hydroxyacetyl)pyrrolidin-3-yl)-1H-pyrazol-4-yl)pyrazolo[1,5-a]pyridine-3-carbonitrile]", "IC50": 0.4},
      {"smiles": "N#Cc1ccccc1Sc1cc(-c2cnn([C@H]3CCN(CCO)C3)c2)cn2ncc(C#N)c12", "note": "[Example 485, (S)-4-((2-cyanophenyl)thio)-6-(1-(1-(2-hydroxyethyl)pyrrolidin-3-yl)-1H-pyrazol-4-yl)pyrazolo[1,5-a]pyridine-3-carbonitrile]", "IC50": 0.4},
      {"smiles": "Cc1c(-c2cc(Sc3ccc(F)cc3C#N)c3c(C#N)cnn3c2)cnn1CC(C)(C)O", "note": "[Example 486, 4-((2-cyano-4-fluorophenyl)thio)-6-(1-(2-hydroxy-2-methylpropyl)-5-methyl-1H-pyrazol-4-yl)pyrazolo[1,5-a]pyridine-3-carbonitrile]", "IC50": 9},
      {"smiles": "N#Cc1ccccc1Sc1cc(-c2cnn([C@H]3CCCNC3)c2)cn2ncc(C#N)c12", "note": "[Example 487, (S)-4-((2-cyanophenyl)thio)-6-(1-(piperidin-3-yl)-1H-pyrazol-4-yl)pyrazolo[1,5-a]pyridine-3-carbonitrile]", "IC50": 0.4},
      {"smiles": "CC(=O)N[C@H]1CC[C@@H](n2ncc(-c3cc(Sc4nc(C)c(F)cc4F)c4c(C#N)cnn4c3)c2C)CC1", "note": "[Example 488, N-((1s,4s)-4-(4-(3-cyano-4-((3,5-difluoro-6-methylpyridin-2-yl)thio)pyrazolo[1,5-a]pyridin-6-yl)-5-methyl-1H-pyrazol-1-yl)cyclohexyl)acetamide]", "IC50": 1},
      {"smiles": "CC(C)(C)n1cc(-c2cc(Sc3ncccc3F)c3c(C#N)cnn3c2)cn1", "note": "[Example 489, 6-(1-(tert-butyl)-1H-pyrazol-4-yl)-4-((3-fluoropyridin-2-y)thio)pyrazolo[1,5-a]pyridine-3-carbonitrile]", "IC50": 3},
      {"smiles": "CC(C)(O)Cn1cc(-c2cc(Sc3ncccc3F)c3c(C#N)cnn3c2)cn1", "note": "[Example 490, 4-((3-fluoropyridin-2-yl)thio)-6-(1-(2-hydroxy-2-methylpropyl)-1H-pyrazol-4-yl)pyrazolo[1,5-a]pyridine-3-carbonitrile]", "IC50": 2},
      {"smiles": "N#Cc1cnn2cc(-c3ccc(N4CCOCC4)nc3)cc(Sc3ncccc3F)c12", "note": "[Example 491, 4-((3-fluoropyridin-2-yl)thio)-6-(6-morpholinopyridin-3-yl)pyrazolo[1,5-a]pyridine-3-carbonitrile]", "IC50": 1},
      {"smiles": "N#Cc1ccccc1Sc1cc(-c2cnn(C[C@@H](O)CO)c2)cn2ncc(C#N)c12", "note": "[Example 492, (R)-4-((2-cyanophenyl)thio)-6-(1-(2,3-dihydroxypropyl)-1H-pyrazol-4-yl)pyrazolo[1,5-a]pyridine-3-carbonitrile]", "IC50": 1},
      {"smiles": "CC(C)(C)n1cc(-c2cc(Sc3ccccc3C#N)c3c(C#N)cnn3c2)cn1", "note": "[Example 493, 6-(1-(tert-butyl)-1H-pyrazol-4-yl)-4-((2-cyanophenyl)thio)pyrazolo [1,5-a]pyridine-3-carbonitrile]", "IC50": 1},
      {"smiles": "CC(C)(O)Cn1cc(-c2cc(Sc3ccccc3C#N)c3c(C#N)cnn3c2)cn1", "note": "[Example 494, 4-((2-cyanophenyl)thio)-6-(1-(2-hydroxy-2-methylpropyl)-1H-pyrazol-4-yl)pyrazolo[1,5-a]pyridine-3-carbonitrile]", "IC50": 1},
      {"smiles": "N#Cc1ccccc1Sc1cc(-c2ccc(N3CCOCC3)nc2)cn2ncc(C#N)c12", "note": "[Example 495, 4-((2-cyanophenyl)thio)-6-(6-morpholinopyridin-3-yl)pyrazolo[1,5-a]pyridine-3-carbonitrile]", "IC50": 1},
      {"smiles": "Cc1c(-c2cc(Sc3ccc(F)cc3C#N)c3c(C#N)cnn3c2)cnn1[C@H]1CCC[C@H](O)C1", "note": "[Example 496, 4-((2-cyano-4-fluorophenyl)thio)-6-(1-((1S,3S)-3-hydroxycyclohexyl)-5-methyl-1H-pyrazol-4-yl)pyrazolo[1,5-a]pyridine-3-carbonitrile]", "IC50": 3},
      {"smiles": "Cc1c(-c2cc(Sc3ccc(F)cc3C#N)c3c(C#N)cnn3c2)cnn1[C@@H]1CCC[C@@H](O)C1", "note": "[Example 497, 4-((2-cyano-4-fluorophenyl)thio)-6-(1-((1R,3R)-3-hydroxycyclohexyl)-5-methyl-1H-pyrazol-4-y)pyrazolo[1,5-a]pyridine-3-carbonitrile]", "IC50": 1}
    ]}
  ]
}
